Legend:
Format in all cases: physicochemical
[1] = Degradation of PLGH by octreotide acetate in NMP, average molecular weight by GPC (Example 4); details: ambient temperature, 2 hours
Description: A solution of 34 wt % of 50/50 carboxyl terminated polylactide glycolide (PLGH at a 1:1 ratio of lactide to glycolide) in N-methylpyrrolidone (NMP) was prepared and divided into several aliquots. To a 950 mg aliquot was added 57.01 mg of octreotide acetate (OA) to provide a solution of 5.66 wt % octreotide acetate in a 34 wt % solution of PLGH in NMP. Upon standing at ambient temperature for 2 hours, the aliquot with OA and a control aliquot containing only PLGH and NMP were analyzed for average molecular weight of the PLGH by GPC analysis. The retention times were correlated against predetermined molecular weight standards of polylactide-glycolide which had been calibrated by GC-mass spectroscopy.

[2] = Effect of differing octreotide complexes on decomposition of PLGH in NMP, GPC (Example 7); details: 35 wt % 50/50 PLGH in NMP, over 25 days, FIG. 3
Description: Aliquots of a solution of 50/50 polylactide glycolide having an inherent viscosity of 0.57 dL/g and an average molecular weight of 45,000 were prepared so as to provide 35 wt % aliquots of the PLGH in N-methylpyrrolidone (NMP). To individual aliquots was added one of the following octreotide free base (OB)—complexes: OB-citrate; OB mesylate; OB-acetate; OB-Glucuronate. The OB-citrate complex was studied at several ratios: excess OB, 1:3 exchange, 1:1 exchange and citrate to pH 7. The average molecular weight of the PLGH in the solution was periodically determined over a period of 25 days by GPC analysis using pre-calibrated polylactide-glycolide standards for retention times. The following graph presents the results. […] The data determined by this experiment are presented graphically in FIG. 3.

[3] = Precipitation / formulation studies of GHRP-1/ATRIGEL formulations (Example 9); details: bulk GHRP-1 citrate solution, time needed for commercial manufacturing
Description: This formulation was identified as AL3922.02. […] Consequently, a fourth formulation (AL3922.04) was developed.
Table 1 summarizes the precipitation studies that were conducted for each formulation. The acronyms are identified as follows: GHRP-1 is a known […] mimicking growth hormone releasing peptide; DL2A is poly (DL) lactide-glycolide (75/25) having a terminal carboxyl group and an average molecular weight of about 13 kDa and an inherent viscosity of about 0.17 dL/g; NMP is N-methylpyrrolidone.

Molecule: C[C@@H](O)[C@@H]1NC(=O)[C@H](CCCCN)NC(=O)[C@@H](Cc2c[nH]c3ccccc23)NC(=O)[C@H](Cc2ccccc2)NC(=O)[C@@H](NC(=O)[C@H](N)Cc2ccccc2)CSSC[C@@H](C(=O)N[C@H](CO)[C@@H](C)O)NC1=O (relative stereo) [octreotide acetate, L-cysteinamide, D-phenylalanyl-L-cysteinyl-L-phenylalanyl-D-tryptophyl-L-lysyl-L-threonyl-N-[2-hydroxy-1-(hydroxymethyl)propyl]-, cyclic (2→7)-disulfide; [R—(R*,R*)]]
- average molecular weight of the PLGH ([1]; 5.66 wt % octreotide acetate in 34 wt % 50/50 PLGH in NMP, control aliquot 37,628 daltons): 20,173 daltons
- degradation of the PLGH molecular weight ([1]; 34 wt % PLGH in NMP): significant degradation
- degradation of PLGH average molecular weight by octreotide complexes [2]: immediate dramatic degradation

Molecule: GHRP-1: growth hormone releasing peptide; seven amino acid peptide containing one lysine and one tryptophan (ATRIGEL)
- drug precipitation / remaining in solution (Comments) [3]: tended to precipitate out of the solution over a couple of hours

Source: patent US8173148B2, “Stabilized polymeric delivery system comprising a water-insoluble polymer and an organic liquid” (priority 2004, dated 2012)
